# ChEMBL document CHEMBL2029318, “Synthesis and SAR of selective small molecule neuropeptide Y Y2 receptor antagonists” (Bioorg Med Chem Lett, 2012)
# Activity calls are given as the source filed them.
# Assays:
# Assay type in all cases: functional
# [1] = target: T1, Neuropeptide Y receptor type 2 (Homo sapiens, UniProt P49146); assay: Antagonist activity at neuropeptide Y receptor Y2
# T1 sequence (P49146 whole entry): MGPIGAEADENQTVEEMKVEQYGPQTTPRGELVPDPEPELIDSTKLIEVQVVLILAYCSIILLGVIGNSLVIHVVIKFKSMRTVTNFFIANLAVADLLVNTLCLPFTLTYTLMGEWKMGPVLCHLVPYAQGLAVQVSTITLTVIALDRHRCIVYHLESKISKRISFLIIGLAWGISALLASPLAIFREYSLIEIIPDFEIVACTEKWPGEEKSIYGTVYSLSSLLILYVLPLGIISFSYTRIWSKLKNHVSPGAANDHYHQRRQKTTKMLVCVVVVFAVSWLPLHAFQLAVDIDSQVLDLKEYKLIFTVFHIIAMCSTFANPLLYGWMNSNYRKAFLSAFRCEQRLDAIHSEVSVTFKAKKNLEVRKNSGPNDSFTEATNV
# [2] = target: T2, Neuropeptide Y receptor type 1 (Homo sapiens) (UniProt P25929); assay: Antagonist activity at neuropeptide Y receptor Y1 at 10 uM
# T2 sequence (whole entry): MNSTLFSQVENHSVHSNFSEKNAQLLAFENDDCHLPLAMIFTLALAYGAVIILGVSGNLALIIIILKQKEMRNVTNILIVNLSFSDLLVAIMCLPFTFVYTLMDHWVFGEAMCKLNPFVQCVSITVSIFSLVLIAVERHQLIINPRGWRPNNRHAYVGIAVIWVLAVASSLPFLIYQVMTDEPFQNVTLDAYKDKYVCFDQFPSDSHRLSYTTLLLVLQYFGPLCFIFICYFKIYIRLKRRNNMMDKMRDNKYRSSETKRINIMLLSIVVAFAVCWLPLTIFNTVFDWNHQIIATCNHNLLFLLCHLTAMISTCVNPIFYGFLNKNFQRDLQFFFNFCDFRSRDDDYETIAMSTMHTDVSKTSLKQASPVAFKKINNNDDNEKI
# [3] = target: T3, Neuropeptide Y receptor type 2 (Homo sapiens) (UniProt P49146); assay: Antagonist activity at neuropeptide Y receptor Y2 at 10 uM
# T3 sequence (whole entry): T1 sequence (P49146 whole entry)
IC50 [1] [nM],Activity [2],Activity [3],Structure (SMILES)
117,inactive,,O=S(=O)(c1ccc(NC(=S)N2CCC(C(O)(c3ccccc3)c3ccccc3)CC2)cc1)N1CCCC1
67,inactive,,CN(C)S(=O)(=O)c1ccc(NC(=S)N2CCN(C3c4ccccc4NC(=O)c4ccccc43)CC2)cc1 (stereo unspecified)
121,inactive,,CCNS(=O)(=O)c1ccc(NC(=S)N2CCC(C(O)(c3ccccc3)c3ccccc3)CC2)cc1
220,inactive,,CCN(CC)C(=O)c1ccc(OC(=O)N2CCC(C(O)(c3ccccc3)c3ccccc3)CC2)cc1
899,inactive,,CC(C)Oc1ccc(NC(=S)N2CCC(C(O)(c3ccccc3)c3ccccc3)CC2)cc1C#N
,inactive,inactive,COC(c1ccccc1)(c1ccccc1)C1CCN(C(=S)Nc2ccc(S(=O)(=O)N(C)C)cc2)CC1
,inactive,inactive,CCOc1ccc(NC(=S)N2CCC(=C(c3ccccc3)c3ccccc3)CC2)cc1
178,inactive,,OC(c1ccccc1)(c1ccccc1)C1CCN(C(=S)Nc2ccc(C(F)(F)F)cc2)CC1
,inactive,inactive,CCN(CC)C(=O)c1cccc(OC(=O)N2CCC(C(O)(c3ccccc3)c3ccccc3)CC2)c1
,inactive,inactive,OC(c1ccccc1)(c1ccccc1)C1CCN(C(=S)Nc2ccccc2)CC1
206,inactive,,CCNC(=O)c1ccc(NC(=S)N2CCC(C(O)(c3ccccc3)c3ccccc3)CC2)cc1
483,inactive,,CN(C)S(=O)(=O)c1ccc(NC(=S)N2CCN(C(c3ccccc3)c3ccccc3)CC2)cc1
1050,inactive,,OC(c1ccccc1)(c1ccccc1)C1CCN(C(=S)Nc2ccc(OC(F)(F)F)cc2)CC1
19,inactive,,CN(C)S(=O)(=O)c1ccc(NC(=S)N2CCC(C(O)(c3ccccc3)c3ccccc3)CC2)cc1
6760,inactive,,CCOC(=O)c1ccc(NC(=S)N2CCC(C(c3ccccc3)c3ccccc3)CC2)cc1
1350,inactive,,CCOc1ccc(NC(=S)N2CCC(C(O)(c3ccccc3)c3ccccc3)CC2)c(F)c1
89,inactive,,CN(C)S(=O)(=O)c1ccc(NC(=S)N2CCC(C(O)(c3ccccc3)c3ccc(F)cc3)CC2)cc1 (stereo unspecified)
207,inactive,,CCOC(=O)c1ccc(NC(=S)N2CCC(C(O)(c3ccccc3)c3ccccc3)CC2)cc1
248,inactive,,CN(C)S(=O)(=O)c1ccc(NC(=S)N2CCC(C(O)(c3ccccc3)c3ccsc3)CC2)cc1 (stereo unspecified)
,inactive,inactive,CCN(CC)S(=O)(=O)c1cccc(OC(=O)N2CCC(C(O)(c3ccccc3)c3ccccc3)CC2)c1
,inactive,inactive,CN(C)S(=O)(=O)c1ccc(NC(=S)N2CCC(C(O)(c3ccccc3)c3ccoc3)CC2)cc1 (stereo unspecified)
> 10000,inactive,,CCOc1ccc(NC(=S)N2CCC(C(c3ccccc3)c3ccccc3)CC2)cc1
1770,inactive,,CC(C)Oc1ccc(NC(=S)N2CCC(C(O)(c3ccccc3)c3ccccc3)CC2)cc1
12,inactive,,CCN(CC)S(=O)(=O)c1ccc(OC(=O)N2CCC(C(O)(c3ccccc3)c3ccccc3)CC2)cc1

IC50 [1] [nM],Activity [2],Activity [3],Structure (SMILES)
394,inactive,,CS(=O)(=O)Nc1ccc(OC(=O)N2CCC(C(O)(c3ccccc3)c3ccccc3)CC2)cc1
777,inactive,,CCCc1ccc(NC(=S)N2CCC(C(O)(c3ccccc3)c3ccccc3)CC2)cc1
2680,inactive,,COc1ccc(OC(=O)N2CCC(C(O)(c3ccccc3)c3ccccc3)CC2)cc1
,inactive,inactive,CN(C)S(=O)(=O)c1ccc(NC(=S)N2CCC(C(O)(c3ccccc3)c3cccnc3)CC2)cc1 (stereo unspecified)
,inactive,inactive,CCOc1ccc(NC(=S)N2CCC(C(O)(c3ccccc3)C3CCCCC3)CC2)cc1 (stereo unspecified)
1420,inactive,,CNC(=O)c1ccc(NC(=S)N2CCC(C(O)(c3ccccc3)c3ccccc3)CC2)cc1
323,inactive,,CCOc1ccc(NC(=S)N2CCC(C(O)(c3ccccc3)c3ccccc3)CC2)cc1C#N
,inactive,inactive,CCC(=O)Nc1ccc(OC(=O)N2CCC(C(O)(c3ccccc3)c3ccccc3)CC2)cc1
1200,inactive,,OC(c1ccccc1)(c1ccccc1)C1CCN(C(=S)Nc2ccc(N3CCCC3)cc2)CC1
72,inactive,,CCN(CC)c1ccc(NC(=S)N2CCC(C(O)(c3ccccc3)c3ccccc3)CC2)cc1
1580,inactive,,CCOc1ccc(OC(=O)N2CCC(C(O)(c3ccccc3)c3ccccc3)CC2)cc1
59,inactive,,CCS(=O)(=O)c1ccc(OC(=O)N2CCC(C(O)(c3ccccc3)c3ccccc3)CC2)cc1
136,inactive,,CCN(CC)S(=O)(=O)c1ccc(NC(=S)N2CCC(C(O)(c3ccccc3)c3ccccc3)CC2)cc1
141,inactive,,CS(=O)(=O)c1ccc(OC(=O)N2CCC(C(O)(c3ccccc3)c3ccccc3)CC2)cc1
49,inactive,,O=C(Oc1ccc(S(=O)(=O)N2CCCC2)cc1)N1CCC(C(O)(c2ccccc2)c2ccccc2)CC1
371,inactive,,CCOc1ccc(NC(=S)N2CCN(C(c3ccccc3)c3ccccc3)CC2)cc1
301,inactive,,CN(C)C(=O)c1ccc(NC(=S)N2CCC(C(O)(c3ccccc3)c3ccccc3)CC2)cc1
3300,inactive,,CCOc1ccc(NC(=S)N2CCC(C(O)(c3ccccc3)c3c(C)noc3C)CC2)cc1 (stereo unspecified)
1100,inactive,,COc1ccc(NC(=S)N2CCC(C(O)(c3ccccc3)c3ccccc3)CC2)cc1
612,inactive,,CN(C)c1ccc(NC(=S)N2CCC(C(O)(c3ccccc3)c3ccccc3)CC2)cc1
85,inactive,,CCN(CC)c1ccc(NC(=S)N2CCC(C(O)(c3ccccc3)c3ccccc3)CC2)cc1Cl
61,inactive,,CN(C)S(=O)(=O)c1ccc(OC(=O)N2CCC(C(O)(c3ccccc3)c3ccccc3)CC2)cc1
98,inactive,,CN(C)S(=O)(=O)c1ccc(NC(=S)N2CCC(C(O)(c3ccccc3)c3ccccn3)CC2)cc1 (stereo unspecified)

Structure (SMILES),IC50 [1] [nM],Activity [2],Activity [3]
CCOc1ccc(NC(=S)N2CCC(C(O)(c3ccccc3)c3ccccc3)CC2)cc1,190,inactive,
Cc1ccc(C)c(NS(=O)(=O)c2cc(C(=O)Nc3ccccc3-c3ccccc3)ccc2C)c1,440,,
CCN(CC)C(=O)c1ccc(NC(=S)N2CCC(C(O)(c3ccccc3)c3ccccc3)CC2)cc1,78,inactive,
COc1cccc(-c2nc(-c3ccc(NC(=O)Cc4ccccc4OC)cc3)no2)c1,1200,,
Cc1ccc(S(=O)(=O)C(c2ccccc2)c2c(C)noc2C)cc1 (stereo unspecified),4400,,
